Assay results published in the supplement of paper PMC11061612.

What was measured:
Experiment in all cases: Bliss excess, mean over the matrix (fraction); higher = more synergy
[1] = tested on: SN12C (Kidney Carcinoma)
Method in brief: (§1)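 Cell lines grown in DMEM/F12 or RPMI with 10% FBS were plated in 1536-well plates and held 24 hours at 37°C, 5% CO2 before 72 hours of exposure to two-drug dose matrices, with DMSO typically at 0.2%. CellTiter-Glo 2.0 luminescence gave viability, which was converted to inhibition. Vehicle wells were set to 0 and blank wells to 1. Combination Emax is the second-highest inhibition in the matrix, and Bliss excess is the observed combination effect minus the expected EA + EB − EA·EB, where EA and EB are the single-agent effects.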

[2] = tested on: SNU-C5 (Colorectal Carcinoma)
Method in brief: as §1

[3] = tested on: MDA-MB-231 (Breast Carcinoma)
Method in brief: as §1

[4] = tested on: TE-5 (Esophageal Squamous Cell Carcinoma)
Method in brief: as §1

[5] = tested on: NCI-H2369 (Mesothelioma)
Method in brief: as §1

[6] = tested on: G-292-Clone-A141B1 (Osteosarcoma)
Method in brief: as §1

[7] = tested on: SW780 (Bladder Carcinoma)
Method in brief: as §1

[8] = tested on: CTV-1 (T-Lymphoblastic Leukemia)
Method in brief: as §1

[9] = tested on: NCI-H2595 (Mesothelioma)
Method in brief: as §1

[10] = tested on: NCI-H1694 (Small Cell Lung Carcinoma)
Method in brief: as §1

[11] = tested on: DOV13 (Ovarian Carcinoma)
Method in brief: as §1

[12] = tested on: IHH-4 (Thyroid Gland Carcinoma)
Method in brief: as §1

[13] = tested on: HCC2157 (Breast Carcinoma)
Method in brief: as §1

[14] = tested on: SW1088 (Low Grade Glioma)
Method in brief: as §1

[15] = tested on: LU-99A (Non-Small Cell Lung Carcinoma)
Method in brief: as §1

[16] = tested on: KM-H2 (Hodgkin's Lymphoma)
Method in brief: as §1

[17] = tested on: COR-L23 (Non-Small Cell Lung Carcinoma)
Method in brief: as §1

[18] = tested on: SW1990 (Pancreatic Carcinoma)
Method in brief: as §1

[19] = tested on: DB (B-Cell Non-Hodgkin's Lymphoma)
Method in brief: as §1

[20] = tested on: NALM-6 (B-Lymphoblastic Leukemia)
Method in brief: as §1

Row | SMILES | Bliss excess [1] | Bliss excess [2] | Bliss excess [3] | Bliss excess [4] | Bliss excess [5] | Bliss excess [6] | Bliss excess [7] | Bliss excess [8] | Bliss excess [9] | Bliss excess [10] | Bliss excess [11] | Bliss excess [12] | Bliss excess [13] | Bliss excess [14] | Bliss excess [15] | Bliss excess [16] | Bliss excess [17] | Bliss excess [18] | Bliss excess [19] | Bliss excess [20]
1 | NC1(C(=O)N[C@@H](CCO)c2ccc(Cl)cc2)CCN(c2ncnc3[nH]ccc23)CC1 [Capivasertib] + C[C@@H]1COCCN1C2=NC(=NC(=C2)C3(CC3)[S@](=N)(=O)C)C4=C5C=CNC5=NC=C4 [AZD6738] (first compound max 10 µM, 7x7, partner max 10 µM) | -0.0044 | -0.0645 | -0.0598 | -0.0345 | -0.0127 | -0.0276 | -0.0216 | 0.0489 | -0.0114 | -0.0412 | -0.062 | 0.0028 | -0.0175 | -0.0619 | -0.0059 | -0.0181 | -0.0358 | -0.0259 | -0.0769 | -0.0686
2 | NC1(C(=O)N[C@@H](CCO)c2ccc(Cl)cc2)CCN(c2ncnc3[nH]ccc23)CC1 [Capivasertib] + COc1nnc2ccc(N3CCC(c4ccc(OCCN5CCN(C)C(=O)[C@H]5C)cc4)CC3)nn12 [AZD5153] (first compound max 10 µM, 7x7, partner max 1 µM) | -0.0155 | 0.0669 | -0.009 | 0.0361 | 0.004 | 0.0249 | 0.0042 | 0.0097 | -0.0072 | 0.0007 | -0.0489 | 0.0199 | -0.008 | 0.0253 | 0 | 0.0144 | 0.0335 | -0.0086 | -0.0003 | -0.0517
3 | CC(=O)c1c(C)c2cnc(Nc3ccc(N4CCNCC4)cn3)nc2n(C2CCCC2)c1=O [Palbociclib] + CC1(C)CCC(CN2CCN(c3ccc(C(=O)NS(=O)(=O)c4ccc(NCC5CCOCC5)c([N+](=O)[O-])c4)c(Oc4cnc5[nH]ccc5c4)c3)CC2)=C(c2ccc(Cl)cc2)C1 [Venetoclax] (first compound max 10 µM, 7x7, partner max 1 µM) | -0.0525 | -0.017 | -0.0242 | -0.0558 | -0.0543 | -0.0368 | -0.0395 | 0.0415 | -0.0557 | 0 | 0.0125 | 0.0096 | 0.0389 | -0.018 | 0.048 | -0.0011 | -0.0429 | -0.0239 | 0.0187 | 0.0132
4 | CC1(C)CCC(CN2CCN(c3ccc(C(=O)NS(=O)(=O)c4ccc(NCC5CCOCC5)c([N+](=O)[O-])c4)c(Oc4cnc5[nH]ccc5c4)c3)CC2)=C(c2ccc(Cl)cc2)C1 [Venetoclax] + C=CCn1c(=O)c2cnc(Nc3ccc(N4CCN(C)CC4)cc3)nc2n1-c1cccc(C(C)(C)O)n1 [AZD1775] (first compound max 1 µM, partner max 1 µM) | 0 | -0.0339 | -0.0666 | -0.0412 | -0.0134 | -0.0023 | -0.0244 | -0.0327 | -0.0316 | 0.0226 | 0.131 | -0.0654 | -0.0554 | -0.003 | -0.0533 | 0.02 | -0.0609 | 0.0206 | 0.0119 | 0.119
5 | COc1nnc2ccc(N3CCC(c4ccc(OCCN5CCN(C)C(=O)[C@H]5C)cc4)CC3)nn12 [AZD5153] + CCN(CCO)CCCOc1ccc2c(Nc3cc(CC(=O)Nc4cccc(F)c4)[nH]n3)ncnc2c1 [AZD2811] (first compound max 1 µM, 7x7, partner max 1 µM) | 0.0129 | -0.0541 | -0.0353 | -0.0124 | -0.0563 | -0.0263 | -0.0766 | 0.0988 | -0.0227 | 0.0041 | -0.0908 | 0.0167 | 0.0389 | -0.0669 | -0.0244 | 0 | -0.0551 | -0.0477 | -0.0585 | -0.0683
6 | Cc1c2c(nn1C)CSCc1cc(n(C)n1)CSc1cc(c3ccccc3c1)OCCCc1c(C(=O)O)n(C)c3c-2c(Cl)ccc13 [AZD5991] + C[C@@H](Nc1cc(F)cc(F)c1)c1cc(C(=O)N(C)C)cc2c(=O)cc(N3CCOCC3)oc12 [AZD8186] (first compound max 1 µM, 7x7, partner max 3 µM) | -0.0725 | 0.0464 | -0.015 | -0.0172 | -0.004 | -0.013 | 0.0157 | -0.0144 | 0.0369 | 0.0151 | 0.0294 | 0.0184 | 0.0105 | 0.0098 | -0.0534 | -0.0338 | -0.032 | -0.0948 | -0.0287 | 0.0341
7 | CC1(C)CCC(CN2CCN(c3ccc(C(=O)NS(=O)(=O)c4ccc(NCC5CCOCC5)c([N+](=O)[O-])c4)c(Oc4cnc5[nH]ccc5c4)c3)CC2)=C(c2ccc(Cl)cc2)C1 [Venetoclax] + CCN(CCO)CCCOc1ccc2c(Nc3cc(CC(=O)Nc4cccc(F)c4)[nH]n3)ncnc2c1 [AZD2811] (first compound max 1 µM, 7x7, partner max 1 µM) | -0.0267 | 0.0063 | -0.013 | -0.0318 | -0.015 | -0.0413 | -0.007 | -0.0281 | -0.0146 | 0.0477 | 0.0465 | -0.0288 | -0.0305 | -0.0469 | -0.0012 | 0.0106 | -0.0428 | 0.0024 | 0.0416 | 0.0968
8 | Cc1cc2ncnn2cc1Nc1ncc2c(n1)n(C1CCOCC1)c(=O)n2C [AZD7648] + C=CCn1c(=O)c2cnc(Nc3ccc(N4CCN(C)CC4)cc3)nc2n1-c1cccc(C(C)(C)O)n1 [AZD1775] (first compound max 10 µM, partner max 1 µM) | -0.0188 | 0.0457 | 0.0218 | -0.0386 | 0.0034 | -0.0124 | 0.0146 | 0.0096 | -0.0242 | -0.0234 | -0.0795 | 0.0233 | -0.0133 | -0.0479 | -0.0262 | -0.0201 | -0.0588 | -0.0255 | -0.0984 | -0.041
9 | NC1(C(=O)N[C@@H](CCO)c2ccc(Cl)cc2)CCN(c2ncnc3[nH]ccc23)CC1 [Capivasertib] + CC(C)n1c(=O)n(C)c2cnc3cc(F)c(-c4ccc(OCCCN5CCCCC5)nc4)cc3c21 [AZD1390] (first compound max 10 µM, 7x7, partner max 0.3 µM) | -0.0454 | -0.052 | -0.102 | -0.0254 | -0.0104 | -0.0453 | -0.0715 | -0.0908 | -0.0609 | -0.0081 | -0.0407 | -0.0074 | 0.002 | -0.0822 | -0.0962 | -0.0554 | -0.0579 | -0.05 | -0.0494 | -0.0863
10 | CN(CCO)CC[C@H](CSc1ccccc1)Nc1ccc(S(=O)(=O)NC(=O)c2ccc(N3CCC([C@@H](O)c4ccccc4-c4ccc(Cl)cc4)CC3)cc2)cc1S(=O)(=O)C(F)(F)F [AZD4320] + Cn1cnc2c(F)c(Nc3ccc(Br)cc3Cl)c(C(=O)NOCCO)cc21 [Selumetinib] (first compound max 1 µM, 7x7, partner max 3 µM) | -0.0015 | 0.0837 | -0.0013 | 0.0377 | 0.0216 | -0.0021 | 0.0441 | 0.0708 | 0.04 | 0.0042 | -0.114 | 0.0185 | 0.0119 | 0.0246 | 0.0878 | 0.0106 | 0.0645 | 0.0357 | -0.0482 | 0.0153
11 | Cc1c2c(nn1C)CSCc1cc(n(C)n1)CSc1cc(c3ccccc3c1)OCCCc1c(C(=O)O)n(C)c3c-2c(Cl)ccc13 [AZD5991] + C1CN(CCC1(C(=O)N[C@@H](CCO)C2=CC=C(C=C2)Cl)N)C3=NC=NC4=C3C=CN4 [Capivasertib] (first compound max 1 µM, 7x7, partner max 3 µM) | -0.0239 | 0.0007 | -0.0495 | 0.0141 | -0.012 | -0.0115 | -0.011 | 0.0027 | 0.0093 | -0.0142 | 0.0055 | 0.0037 | -0.0488 | -0.0562 | -0.0247 | -0.0052 | -0.0161 | -0.0314 | 0.0079 | 0.0149
12 | Cc1c2c(nn1C)CSCc1cc(n(C)n1)CSc1cc(c3ccccc3c1)OCCCc1c(C(=O)O)n(C)c3c-2c(Cl)ccc13 [AZD5991] + Cn1cnc2c(F)c(Nc3ccc(Br)cc3Cl)c(C(=O)NOCCO)cc21 [Selumetinib] (first compound max 1 µM, 7x7, partner max 3 µM) | -0.0425 | -0.0107 | 0.0135 | -0.0146 | 0.0081 | -0.0558 | 0.0631 | 0.036 | 0.0101 | -0.0048 | 0.0216 | -0.026 | -0.0137 | -0.0543 | -0.0363 | 0.0029 | -0.0051 | -0.0222 | 0.0063 | 0.0165
13 | COc1nnc2ccc(N3CCC(c4ccc(OCCN5CCN(C)C(=O)[C@H]5C)cc4)CC3)nn12 [AZD5153] + C[C@@H]1COCCN1C2=NC(=NC(=C2)C3(CC3)[S@](=N)(=O)C)C4=C5C=CNC5=NC=C4 [AZD6738] (first compound max 1 µM, 7x7, partner max 10 µM) | -0.0091 | 0.0359 | -0.0477 | -0.0316 | 0.0409 | 0.0166 | -0.0052 | 0.0194 | 0.0346 | 0.008 | -0.0623 | -0.0118 | -0.0086 | 0.0059 | -0.0213 | -0.008 | -0.0016 | -0.0424 | 0.0071 | -0.0624
14 | Cc1c2c(nn1C)CSCc1cc(n(C)n1)CSc1cc(c3ccccc3c1)OCCCc1c(C(=O)O)n(C)c3c-2c(Cl)ccc13 [AZD5991] + CC1(C)CCC(CN2CCN(c3ccc(C(=O)NS(=O)(=O)c4ccc(NCC5CCOCC5)c([N+](=O)[O-])c4)c(Oc4cnc5[nH]ccc5c4)c3)CC2)=C(c2ccc(Cl)cc2)C1 [Venetoclax] (first compound max 1 µM, 7x7, partner max 1 µM) | -0.0193 | -0.0164 | 0.0126 | 0.037 | -0.0027 | -0.0292 | 0.0215 | -0.0011 | -0.0384 | 0.076 | 0.0007 | 0.0037 | 0.0305 | -0.0187 | -0.0555 | -0.0094 | -0.0178 | -0.0317 | 0.185 | 0.173
